In ChEMBL document CHEMBL4004883, “Biologically active perspective synthesis of heteroannulated 8-nitroquinolines with green chemistry approach” (Bioorg Med Chem Lett, 2017):
Converted amounts (≈) assume the structure as drawn. The source made the active and inactive calls. No cut-off for these calls is given here.

Tests used:
MCF7 [1] = assay: Induction of apoptosis in human MCF7 cells assessed as cell blebbing at IC50 after 48 hrs by acridine orange/ ethidium bromide staining-based fluorescence microscopic method; type: functional
A549 [2] = assay: Induction of apoptosis in human A549 cells assessed as cell blebbing at IC50 after 48 hrs by acridine orange/ ethidium bromide staining-based fluorescence microscopic method; type: functional
Bacillus subtilis [3] = assay: Antibacterial activity against Bacillus subtilis MTCC 121 at 100 ug incubated for 24 hrs under dark condition by agar well diffusion method; type: functional; conditions: MTCC 121, 24 h, read-out: IZ
MCF7 [4] = assay: Cytotoxicity against human MCF7 cells assessed as decrease in cell viability after 48 hrs by MTT assay; type: functional, cell-based; conditions: MCF7, 48 h
A549 [5] = assay: Induction of apoptosis in human A549 cells assessed as chromatin condensation at IC50 by DAPI staining-based fluorescence microscopic method; type: functional, cell-based
MCF7 [6] = assay: Induction of apoptosis in human MCF7 cells assessed as chromatin condensation at IC50 by DAPI staining-based fluorescence microscopic method; type: functional, cell-based
MCF7 [7] = assay: Induction of apoptosis in human MCF7 cells assessed as cell shrinkage at IC50 after 48 hrs by acridine orange/ ethidium bromide staining-based fluorescence microscopic method; type: functional
A549 [8] = assay: Cytotoxicity against human A549 cells assessed as decrease in cell viability after 48 hrs by MTT assay; type: functional, cell-based; conditions: A549, 48 h
Escherichia coli [9] = assay: Antibacterial activity against Escherichia coli MTCC 1652 at 100 ug incubated for 24 hrs under dark condition by agar well diffusion method; type: functional; conditions: MTCC 1652, 24 h, read-out: IZ
[10] = Antioxidant activity assessed as DPPH radical scavenging activity after 20 mins by UV/VIS Spectrophotometric method; type: functional
[11] = Antioxidant activity assessed as assessed as ferric ion reducing activity by measuring absorbance at 700 nm at 20 ug/ml after 20 mins by spectrophotometric method; type: functional
A549 [12] = assay: Induction of apoptosis in human A549 cells assessed as nuclear fragmentation at IC50 by DAPI staining-based fluorescence microscopic method; type: functional, cell-based
A549 [13] = assay: Induction of apoptosis in human A549 cells assessed as cell shrinkage at IC50 after 48 hrs by acridine orange/ ethidium bromide staining-based fluorescence microscopic method; type: functional
[14] = Antioxidant activity assessed as assessed as ferric ion reducing activity by measuring absorbance at 700 nm at 100 ug/ml after 20 mins by spectrophotometric method; type: functional
[15] = Antioxidant activity assessed as total antioxidant capacity measured as ascorbic acid equivalents at 20 ug/ml after 90 mins by phosphomolybdenum method; type: functional
Pseudomonas aeruginosa [16] = assay: Antibacterial activity against Pseudomonas aeruginosa MTCC 102 incubated for 24 hrs under dark condition by microwell dilution method; type: functional; conditions: MTCC 102, 24 h
[17] = Antioxidant activity assessed as total antioxidant capacity measured as ascorbic acid equivalents at 60 ug/ml after 90 mins by phosphomolybdenum method; type: functional
Staphylococcus aureus [18] = assay: Antibacterial activity against Staphylococcus aureus MTCC 96 incubated for 24 hrs under dark condition by microwell dilution method; type: functional; conditions: MTCC 96, 24 h
Escherichia coli [19] = assay: Antibacterial activity against Escherichia coli MTCC 1652 incubated for 24 hrs under dark condition by microwell dilution method; type: functional; conditions: MTCC 1652, 24 h
[20] = Antioxidant activity assessed as assessed as ferric ion reducing activity by measuring absorbance at 700 nm at 60 ug/ml after 20 mins by spectrophotometric method; type: functional
Bacillus subtilis [21] = assay: Antibacterial activity against Bacillus subtilis MTCC 121 incubated for 24 hrs under dark condition by microwell dilution method; type: functional; conditions: MTCC 121, 24 h
Staphylococcus aureus [22] = assay: Antibacterial activity against Staphylococcus aureus MTCC 96 at 100 ug incubated for 24 hrs under dark condition by agar well diffusion method; type: functional; conditions: MTCC 96, 24 h, read-out: IZ
MCF7 [23] = assay: Induction of apoptosis in human MCF7 cells assessed as nuclear fragmentation at IC50 by DAPI staining-based fluorescence microscopic method; type: functional, cell-based
Pseudomonas aeruginosa [24] = assay: Antibacterial activity against Pseudomonas aeruginosa MTCC 102 at 100 ug incubated for 24 hrs under dark condition by agar well diffusion method; type: functional; conditions: MTCC 102, 24 h, read-out: IZ
[25] = Antioxidant activity assessed as total antioxidant capacity measured as ascorbic acid equivalents at 100 ug/ml after 90 mins by phosphomolybdenum method; type: functional

For N#CC1=C(N)OC2=C(CNc3c2cccc3[N+](=O)[O-])C1c1cccs1 (stereo not given), the Activity (MCF7 [1]) was “Active”, the Activity (A549 [2]) was “Active” and the zone of inhibition at 100 µg/disc (Bacillus subtilis [3]) was 29 mm. The IC50 (MCF7 [4]) was 14.3 µM, the Activity (A549 [5]) was “Active” and the Activity (MCF7 [6]) was “Active”. The Activity (MCF7 [7]) was “Active”, the IC50 (A549 [8]) was 15.4 µM and the zone of inhibition at 100 µg/disc (Escherichia coli [9]) was 22 mm. The IC50 [10] was 194.81 µg/mL (≈ 553 µM), the OD [11] was 0.098 and the Activity (A549 [12]) was “Active”. For the same compound, the Activity (A549 [13]) was “Active”, the OD [14] was 0.134 and the Activity [15] was 2.19 µgequiv/ml. For the same compound, the MIC (Pseudomonas aeruginosa [16]) was 37 µg/mL (≈ 105 µM), the Activity [17] was 5.72 µgequiv/ml and the MIC (Staphylococcus aureus [18]) was 5 µg/mL (≈ 14.2 µM). For the same compound, the MIC (Escherichia coli [19]) was 17 µg/mL (≈ 48.2 µM), the OD [20] was 0.118 and the MIC (Bacillus subtilis [21]) was 5 µg/mL (≈ 14.2 µM). The zone of inhibition at 100 µg/disc (Staphylococcus aureus [22]) was 23 mm, the Activity (MCF7 [23]) was “Active” and the zone of inhibition at 100 µg/disc (Pseudomonas aeruginosa [24]) was 20 mm. The Activity [25] was 11.8 µgequiv/ml.
